These results are taken from US9066922B2, “Pharmaceutical composition for the treatment or prevention of diseases involving obesity, diabetes, metabolic syndrome, neuro-degenerative diseases and mitochondria dysfunction diseases” (MD BIOALPHA CO., LTD., priority 2005, dated 2015).

SMILES strings stand for the structures.

In one test the test system is UCP 1 & 2 genes. Nature of the test: Expression of transcripts of UCP1 and UCP2 genes in DIO mice. In kind it is in vivo, C57BL/6 mice. To be noted: 50 mg/kg daily oral, liver and gonadal adipose tissues. The protocol:
β-lapachone was administered daily to diet-induced obesity (DIO) mice at a dose of 50 mg/kg via an oral route, and levels of transcripts of uncoupling protein 1 & 2 (UCP 1 & 2) genes in the liver and gonadal adipose tissues was measured using real-time quantitative PCR. UCP 1 & 2 are enzymes that perform energy expenditure via heat generation, and it is reported that these enzymes function to consume energy without involving production of reactive oxygen species (ROS) and are also closely correlated with the incidence of obesity (38,39).

A further test concerns AMPK. Nature of the test: Determination of AMPK activation in C2C12 myoblast cells (SAMS peptide, [γ-32P]ATP). The test is classed as cell-based. To be noted: differentiated C2C12 myoblast cells, 5 μg/ml, compared with control (DMSO 0.5% = 1). How it is done:
Myoblast cells, C2C12, were cultured in DMEM containing 10% bovine calf serum. When a cell density reached a range of about 85% to 90%, the culture medium was replaced with a medium containing 1% bovine calf serum to induce differentiation of cells. The thus-differentiated myoblast cells were treated with samples synthesized in Examples 1 through 29 at a concentration of 5 μg/ml, and compared with a control group. Enzymatic activity of AMPK was determined as follows. Firstly, C2C12 cells were lysed to obtain protein extracts and then ammonium sulfate was added to a final concentration of 30%, thereby precipitating proteins. Protein precipitates were dissolved in a buffer (62.5 mM Hepes, pH 7.2, 62.5 mM NaCl, 62.5 mM NaF, 1.25 mM Na pyrophosphate, 1.25 mM EDTA, 1 mM DTT, 0.1 mM PMSF, and 200 μM AMP). Thereafter, 200 μM SAMS peptide (HMRSAMSGLHLVKRR: the underlined serine residue is a phosphorylation site, as an AMPK phosphorylation site of acetyl-CoA carboxylase) and [γ-32P]ATP were added thereto and reactants were reacted for 10 minutes at 30° C. This was followed by spotting of the resulting reaction solution on p81 phosphocellulose paper. The p81 paper was washed with a 3% phosphoric acid solution and radioactivity thereof was measured. For each reaction condition, reactions involving no SAMS peptide were also conducted and basic values were subtracted from the thus-observed values.

The subject of test [1] is mRNAs for HK2, GLUT2 and GLUT4. Nature of the test: Gene expression of proteins involved in glucose metabolism in DIO mice. In kind it is in vivo, C57BL/6 mice. To be noted: 50 mg/kg daily oral, liver and gonadal adipose tissues, vs control group. How it is done:
β-lapachone was administered daily to diet-induced obesity (DIO) mice at a dose of 50 mg/kg via an oral route, and levels of mRNAs for hexokinase 2 (HK2) (21,22), glucose transporter (GLUT) 2 and GLUT4 (18,19,20) in the liver and gonadal adipose tissues were confirmed by real-time quantitative PCR. GLUT is well-known as a protein that mediates intracellular uptake and expenditure of blood glucose in organs such as liver, adipocytes and myoblast cells, whereas HK2, an enzyme belonging to a glucokinase class, phosphorylates […] that are thus allowed to enter glycolytic pathways. […] Increased levels of GLUT2 and GLUT4 facilitate intracellular uptake of blood glucose, thus presenting the possibility of β-lapachone as an anti-diabetic drug.

The subject of test [2] is diet-induced obesity (DIO) C57BL/6 mice. Briefly: Body weight, dietary intake, fat, blood parameters and histology in diet-induced obesity (DIO) C57BL/6 mice. The test is classed as in vivo. The text has this: FIGS. 16A through 16C show whole laparotomized states of animals after administration of β-lapachone to DIO C57BL/6 mice for 56 days and results of oil red O staining and EM examination on fat accumulation in liver tissues. […] In order to confirm improvement in condition of fatty liver in FIG. 16, accumulated fat in the liver was stained using oil red O staining and as a result, it was confirmed that fat has diminished by 90% or more, as compared to a control group.
Referring to FIG. 17, after daily administration of β-lapachone to DIO C57BL/6 mice at a dose of 50 mg/kg via an oral route, animals were laparotomized on day 56 of β-lapachone administration and perilipin staining was performed on gonadal adipose tissues.
Referring to FIG. 19, after daily administration of β-lapachone to DIO C57BL/6 mice at a dose of 50 mg/kg via an oral route, H&E staining of brown adipose tissues was performed on day 56 of administration.

For test [3], the system named is endothelial nitric oxide synthase (eNOS). Briefly: Phosphorylation of eNOS in HUVEC. The test is classed as cell-based, Human. To be noted: 10 μM. How it is done:
It is well-known that activation of AMPK activates NRF-1 and facilitates mitochondrial biogenesis. In addition, NO/cGMP activates PGC-1a and NRF-1 to facilitate mitochondrial biogenesis. In order to ascertain whether β-lapachone, which activates AMPK, is involved in production of nitric oxide (NO), a degree of phosphorylation, increasing the activity of endothelial nitric oxide synthase (eNOS), was determined. In order to examine phosphorylation of eNOS by the action of β-lapachone, Human Umbilical Vein Endothelial Cells (HUVEC) were seeded onto a 60-mm plate at a density of 1×10^5 cells, and cultured in EBM2+5% FBS medium for 24 hours. The culture medium was replaced with a serum-free EBM2 medium, and cells were treated with β-lapachone (10 μM) for a predetermined period of time. Phosphorylated eNOS was observed using Anti-pS1177 eNOS.

A further test deals with DIO C57BL/6 mice. Briefly: Respiratory Quotient (RQ), indirect calorimeter. The test is classed as in vivo. As to conditions: measured for 7 hours, vs vehicle-administered group and control group. How it is done:
FIG. 24 is a graph showing effects of β-lapachone on Respiratory Quotient (RQ) after administration of β-lapachone to DIO C57BL/6 mice.
This Example was intended to examine effects of β-lapachone on fat metabolism via measurement of Respiratory Quotient (RQ). Oxygen consumption and carbon dioxide production were measured using an Oxyscan open-circuit indirect calorimeter (AccuScan Instruments, Columbus, Ohio). This apparatus consisted of enclosed acrylic chambers (21×21×21 cm). Fresh air was drawn into each chamber at a rate of 1500 ml/min and then O2 and CO2 were allowed to pass through detectors. The concentrations of the gases were recorded in ml/kg body weight/min. RQ was calculated as the volume of CO2 produced (VCO2) divided by the volume of O2 consumed (VO2). A β-lapachone-administered group, a vehicle-administered group and a control group were placed in each apparatus, and RQ was measured for 7 hours. For acclimation of animal to new environment, mice were placed in the apparatus 2 hours prior to measurement.

Setting [4] is: DIO C57BL/6 mice, 56 days, vs control group.
Setting [5] is: DIO mice, 50 mg/kg daily oral, day 56.
[6] abbreviates: DIO mice, 50 mg/kg daily oral, days 3, 7, 14, 28 and 56.

Consider `CC1(C)CCC2=C(O1)c1ccccc1C(=O)C2=O` [Compound 1, β-Lapachone], for which, in the test with UCP 1 & 2 genes, the “UCP1 mRNA level” value is on record as “significant increases in mRNA levels” and the “UCP2 mRNA level” value is “significant increases in mRNA levels”. Besides, the AMPK fold with AMPK stood at 2.2 fold. Further, in test [1], the “GLUT2 mRNA expression” value is given as “significant increases”, the “GLUT4 mRNA expression” value is on record as “significant increases” and the “HK2 mRNA level” value is “decreased”. The “visceral fat and body weight (laparotomized state)” value in test [2] (DIO C57BL/6 mice, 56 days) was “conspicuous decreases in visceral fat and body weight”. In test [2] (setting [4]), the “EM examination on liver tissues: fat vacuoles and glycogen stores” value was “remarkably decreased fat vacuoles and glycogen stores”; the “EM examination on liver tissues: mitochondrial numbers” value is “significant increases in mitochondrial numbers”; the “decrease of accumulated fat in the liver (oil red O staining)” value was at least 90%; the “weight changes in various organs” value is “significant changes in weight of tissues”. Also, in test [2] (DIO mice on high-fat diet, 50 mg/kg daily oral, 56 days, vs control group), the body weight result was “continuous weight loss for 56 days”. For the same molecule, the dietary intake result in test [2] (DIO mice, 50 mg/kg daily oral, 56 days) is given as “decreases in dietary intake for first two weeks”. In test [2] (setting [5]), the “size of adipocytes in brown adipose tissue (EM examination)” value is given as “remarkably decreased”, the “size of adipocytes in brown adipose tissues (H&E staining)” value is recorded as “remarkably decreased” and the “size of adipocytes in gonadal adipose tissues (perilipin staining)” value is “remarkably decreased”. In addition, in test [2] (setting [6]), the “blood fat and glucose levels” value is “significantly improved”; the “blood level of resistin” value is reported as “significantly improved”; the “insulin resistance and leptin resistance” value is “also improved”. In addition, in test [3], the “phosphorylation of eNOS after the maximum” value is “gradually diminished, thereby not observed 2 hours later” and the “time of maximum increase of phosphorylation of eNOS (Anti-pS1177 eNOS)” value worked out at 30 min. In the test with DIO C57BL/6 mice, the “Respiratory Quotient (RQ)” value was “significant difference in a RQ value”.
